Measured values: the supplement of paper PMC10949913
Values joined by “and” are separate entries in the source; they are usually repeats but may differ in a detail not shown here. Equal entries are not always repeated.

How the values were obtained:
NCI-H295R = experiment: area under concentration-response curve (viability) (AUC (a.u.)); higher = less active; conditions: 48 h
Summary of the method: (§1)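 Three adrenocortical carcinoma cell lines were seeded at 500–1,000 cells/well in 5 µL medium in 1,536-well plates. 23 nL of each MIPE 5.0 library compound was added at 11 concentrations. After 48 h (per the protocol name), CellTiter-Glo was added for 15 minutes at room temperature and luminescence was read. Signals were normalised per plate to vehicle and empty-well controls. AC50 and area under the curve came from fitted concentration-response curves, keeping only inhibitory or non-responding curve classes.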

CU-ACC1 = experiment: as above; conditions: 48 h
Summary of the method: as §1

For `C/C=C(/C(=C/C)c1ccc(O)cc1)c1ccc(O)cc1`, the “area under concentration-response curve” value (NCI-H295R) was 366.

In the case of `FC1=CC=C(CN2\C=C/C=C(/C(=O)N[C@@H](COC3=CC4=C(NC(=O)N4)C=C3)C5=CC=CC=C5)C2=O)C=C1F`, the “area under concentration-response curve” value (CU-ACC1) is reported as 546.

For `COc1cc2c(Oc3ccc4[nH]c(C)cc4c3F)ccnc2cc1OCC1(N)CC1`, the “area under concentration-response curve” value (CU-ACC1) was 534.

`Cc1ccc(NC(=O)c2ccc(CN3CC[C@H](N(C)C)C3)c(C(F)(F)F)c2)cc1Nc1nccc(-c2cncnc2)n1` was tested, and the “area under concentration-response curve” value (CU-ACC1) was 549.

`CCc1cc2c(cc1N1CCC(N3CCOCC3)CC1)C(C)(C)c1[nH]c3cc(C#N)ccc3c1C2=O` was tested, and the “area under concentration-response curve” value (CU-ACC1) was 416.

In the case of `COc1ccc(N(C(=O)Oc2c(C)cccc2C)c2ccnc(Nc3ccc(N4CCN(C)CC4)cc3)n2)c(OC)c1`, the “area under concentration-response curve” value (NCI-H295R) is reported as 545.

With `C=CCN1C[C@H](C(=O)N(CCCN(C)C)C(=O)NCC)CC2c3cccc4[nH]cc(c34)C[C@H]21` (stereo partly specified) the “area under concentration-response curve” value (NCI-H295R) was 545.

With `CCc1cc(C(N)=S)ccn1` the “area under concentration-response curve” value (NCI-H295R) was 552.

In the case of `C[C@]12CC[C@H]3[C@@H](CC(=C)\C4=C\C(=O)\C=C/[C@]34C)[C@@H]1CCC2=O`, the “area under concentration-response curve” value (CU-ACC1) is reported as 320.

`C=CC(=O)N1CCC[C@@H](n2nc(-c3ccc(Oc4ccccc4)cc3)c3c(N)ncnc32)C1` was tested, and the “area under concentration-response curve” value (NCI-H295R) was 459.

In the case of `Clc1ccc(COC(Cn2ccnc2)c2ccc(Cl)cc2Cl)cc1` (stereo unspecified), the “area under concentration-response curve” value (CU-ACC1) is reported as 433.

With `OC[C@H]1O[C@H]([C@@H](F)[C@@H]1O)N2\C=C/C(=O)NC2=O` the “area under concentration-response curve” value (CU-ACC1) was 370.

`CCOC(=O)\C1=C(/C)N\C2=C(C1C3=CC=C(C=C3)C4=CC=CC=C4)\C(=O)CC(C)(C)C2` (stereo unspecified) was tested, and the “area under concentration-response curve” value (CU-ACC1) was 552.

`O=C(CCc1ccc(O)cc1)c1c(O)cc(O)cc1O[C@@H]1O[C@H](CO)[C@@H](O)[C@H](O)[C@H]1O` was tested, and the “area under concentration-response curve” value (NCI-H295R) was 242.

With `CCc1c(O)cc(O)c(C(=O)c2ccc(OCCN3CCOCC3)c(OC)c2)c1CC(=O)N(CCOC)CCOC` the “area under concentration-response curve” value (CU-ACC1) was 216.

For `OCCN(CCO)c1nc(N2CCCCC2)c2nc(N(CCO)CCO)nc(N3CCCCC3)c2n1`, the “area under concentration-response curve” value (CU-ACC1) was 478.

In the case of `O=P1(NCCCl)OCCCN1CCCl` (stereo unspecified), the “area under concentration-response curve” value (NCI-H295R) is reported as 553.

With `COc1cccc(OCCCN)c1-c1cc(Nc2cnc(C#N)cn2)n[nH]1` the “area under concentration-response curve” value (CU-ACC1) was 347.

For `OC1=CC(=C(C=C1)\C2=C(O)\C(=O)C3=C(O2)C=C(O)C=C3O)O`, the “area under concentration-response curve” value (NCI-H295R) was 591.

With `CCCN[C@H]1CCc2nc(N)sc2C1` the “area under concentration-response curve” value (NCI-H295R) was 566.

`COc1ccc(Cc2ccc(NC(N)=O)cc2)cc1-c1cccc(Cl)c1` was tested, and the “area under concentration-response curve” value (CU-ACC1) was 480.

With `CC1(C)CCC2(CC1)N[C@@H](C(=O)N[C@@H]1CC[C@@H](C(N)=O)OC1)[C@H](c1ccnc(Cl)c1F)[C@]21C(=O)Nc2cc(Cl)ccc21` the “area under concentration-response curve” value (CU-ACC1) was 501.

In the case of `Cc1cc(C)cc(NC(=O)Cc2ccc(OC(C)(C)C(=O)O)cc2)c1`, the “area under concentration-response curve” value (CU-ACC1) is reported as 504.

`OC[C@H]1O[C@H]([C@H](O)[C@@H](O)[C@@H]1O)C2=C(O)C=CC3=C2O/C=C(C3=O)/C4=CC=C(O)C=C4` was tested, and the “area under concentration-response curve” value (NCI-H295R) was 540.

`CCCCN(CCCC)C(=O)CN1C[C@H](c2ccc3c(c2)OCO3)[C@@H](C(=O)O)[C@@H]1c1ccc(OC)cc1` was tested, and the “area under concentration-response curve” value (CU-ACC1) was 460.

With `NC(=O)c1ncn([C@@H]2O[C@H](CO)[C@@H](O)[C@H]2O)c1O` the “area under concentration-response curve” value (NCI-H295R) was 401 and 302.

With `CSC1=CC(=CC=C1)NC2=NC3=C(C=N2)/C=C(C(=O)N3C)/C4=C(Cl)C=CC=C4Cl` the “area under concentration-response curve” value (NCI-H295R) was 495.

In the case of `O=[S+]([O-])(CC1CS1)c1ccc(Oc2ccccc2)cc1` (stereo unspecified), the “area under concentration-response curve” value (NCI-H295R) is reported as 542.

With `CC\12CCC(=O)\C=C1CCC3C2CCC4(C)C3CCC4(O)C#C` (stereo unspecified) the “area under concentration-response curve” value (NCI-H295R) was 440.

For `CC(=O)c1c(O)c(C)c(O)c(Cc2c(O)c3c(c(C(=O)/C=C/c4ccccc4)c2O)OC(C)(C)C=C3)c1O`, the “area under concentration-response curve” value (CU-ACC1) was 323.

With `O=C(/C=C/N1C[C@H]2C[C@@H]1CN2c1ccccn1)c1ccccc1O` the “area under concentration-response curve” value (CU-ACC1) was 306.

In the case of `N[S+](=O)([O-])c1ccc(Nc2nc(OCC3CCCCC3)c3[nH]cnc3n2)cc1`, the “area under concentration-response curve” value (NCI-H295R) is reported as 554.

In the case of `O=C(O)CCCc1ccc(N(CCCl)CCCl)cc1`, the “area under concentration-response curve” value (CU-ACC1) is reported as 300.

`O=C(O)c1ccc(-c2c[nH]c3ncc(-c4ccccc4)cc23)cc1C1CCCC1` was tested, and the “area under concentration-response curve” value (NCI-H295R) was 501.

With `CO[C@@]12[C@H](COC(N)=O)C/3=C(N1C[C@@H]4N[C@H]24)/C(=O)/C(=C(N)\C3=O)C` the “area under concentration-response curve” value (CU-ACC1) was 378.

For `O=C(O)CCCCC(CCSCc1ccccc1)SCc1ccccc1` (stereo unspecified), the “area under concentration-response curve” value (NCI-H295R) was 589.

With `O=[S+]([O-])(O)c1ccc2cc(/N=N/c3cc([S+](=O)([O-])O)c4cccnc4c3O)ccc2c1` the “area under concentration-response curve” value (CU-ACC1) was 500.

For `CN1\N=N/C2=C(N=C[N]2C1=O)C(N)=O`, the “area under concentration-response curve” value (NCI-H295R) was 581.

In the case of `CCOC(=O)C(C#N)C\1C2=CC(=CC=C2O\C(=C1C(=O)OCC)N)Br` (stereo unspecified), the “area under concentration-response curve” value (NCI-H295R) is reported as 569.

In the case of `C[C@@H]1CCN(C(=O)CC#N)C[C@@H]1N(C)c1ncnc2[nH]ccc12`, the “area under concentration-response curve” value (CU-ACC1) is reported as 305.

`COc1cc2c(cc1O)CC[C@@H]1[C@@H]2CC[C@]2(C)[C@@H](O)CC[C@@H]12` was tested, and the “area under concentration-response curve” value (NCI-H295R) was 383.

With `NC(=O)c1c(OCc2c(F)cc(Br)cc2F)nsc1NC(=O)NCCCCN1CCCC1` the “area under concentration-response curve” value (CU-ACC1) was 395.

`CCCCCNC(=O)N1CCC(CN(Cc2ccc(Cl)cc2)Cc2ccc([N+](=O)[O-])s2)C1` (stereo unspecified) was tested, and the “area under concentration-response curve” value (CU-ACC1) was 509.

`O=C(NCCCCN1CCOCC1)c1cc2ccccc2o1` was tested, and the “area under concentration-response curve” value (CU-ACC1) was 461.

In the case of `O=c1[nH]c2ccccc2n1CCCN1CCC(n2c(=O)[nH]c3cc(Cl)ccc32)CC1`, the “area under concentration-response curve” value (NCI-H295R) is reported as 539.

In the case of `CCOC(=O)c1ccc(C#Cc2ccc3c(c2)C(C)(C)CCS3)nc1`, the “area under concentration-response curve” value (CU-ACC1) is reported as 505.

For `CC[C@H]1OC(=O)[C@H](C)[C@@H](O[C@H]2C[C@@](C)(OC)[C@@H](O)[C@H](C)O2)[C@H](C)[C@@H](O[C@@H]2O[C@H](C)C[C@H](N(C)C)[C@H]2O)[C@](C)(O)C[C@@H](C)CN(C)[C@H](C)[C@@H](O)[C@]1(C)O`, the “area under concentration-response curve” value (CU-ACC1) was 310.

`O=C(O)Cc1cccc(OCCCN(Cc2cccc(C(F)(F)F)c2Cl)CC(c2ccccc2)c2ccccc2)c1` was tested, and the “area under concentration-response curve” value (CU-ACC1) was 535.

With `NC\1=N\C(=O)N(\C=C1)[C@H]\2[C@H](O)[C@H](O)C(=C2F)\CO` the “area under concentration-response curve” value (CU-ACC1) was 336.

In the case of `COc1ccc([S+](=O)([O-])Nc2cc(-c3c(O)ccc4ccccc34)c(O)c3ccccc23)cc1`, the “area under concentration-response curve” value (CU-ACC1) is reported as 482.

`O=C(O)C[C@H]1CCc2c1[nH]c1ccc(OCc3ccc(C4CCCC4)c(C(F)(F)F)c3)cc21` was tested, and the “area under concentration-response curve” value (CU-ACC1) was 506.

`Cc1ccc(-c2ncc(Cl)cc2-c2ccc([S+](C)(=O)[O-])cc2)cn1` was tested, and the “area under concentration-response curve” value (CU-ACC1) was 366.

In the case of `CCCCCCCN(CC)CCCC(O)c1ccc(N[S+](C)(=O)[O-])cc1` (stereo unspecified), the “area under concentration-response curve” value (CU-ACC1) is reported as 398.

In the case of `NC(=O)c1cccc2cn(-c3ccc([C@@H]4CCCNC4)cc3)nc12`, the “area under concentration-response curve” value (CU-ACC1) is reported as 444.

For `COc1ccc2cc(-c3[nH]c(-c4ccc([S+](C)[O-])cc4)nc3-c3ccncc3)ccc2c1` (stereo unspecified), the “area under concentration-response curve” value (CU-ACC1) was 472.

In the case of `Cc1ncc(Cl)cc1NCc1ccc(C(=O)NC(CC2CCCC2)C(=O)NC2CC2)s1` (stereo unspecified), the “area under concentration-response curve” value (CU-ACC1) is reported as 467.
